Experimental findings from US20180022780A1, “STABILIZATION ADRENOMEDULLIN DERIVATIVES AND USE THEREOF” (priority 2014, published 2018) are described below.

The target of assay [1] is T1, human adrenomedullin-receptor (Homo sapiens, UniProt O60895+Q16602).
T1 construct: expressed in transfected cells; host or cells: CHO (Chinese hamster ovary) recombinant reporter cell line with aequorin
Description: Tests on a recombinant adrenomedullin-receptor reporter cell (CHO, aequorin luminescence). As to conditions: Table 1, CHO cell line carrying the human adrenomedullin-receptor. Type of assay: cell-based. The protocol:
Activation of the receptor by ligands was measured by aequorin luminescence. Construction of the cell line and measurement procedure has been described in detail [Wunder F., Rebmann A., Geerts A, and Kalthof B., Mol Pharmacol, 73, 1235-1243 (2008)]. In brief: Cells were seeded on opaque 384-well microtiter plates at a density of 4000 cells/well and were grown for 24 h. After removal of culture medium, cells were loaded for 3 h with 0.6 μg/ml coelenterazine in Ca^2+-free Tyrode solution (130 mM sodium chloride, 5 mM potassium chloride, 20 mM HEPES (4-(2-hydroxyethyl)-1-piperazineethanesulfonic acid), 1 mM magnesium chloride, and 4.8 mM sodium hydrogen carbonate, pH 7.4) supplemented with 0.2 mM 3-Isobutyl-1-methylxanthine (IBMX) in a cell culture incubator. Examples were added for 6 min in calcium^2+-free Tyrode solution containing 0.1% bovine serum albumin. Immediately before adding calcium^2+ to a final concentration of 3 mM measurement of the aequorin luminescence was started by use of a suitable luminometer. Luminescence was measured for 60 s. In a typical experiment compounds were tested in a concentration range of 1×10^−13 to 3×10^−6 M.

In assay [2] the target is T2, CLR fused to EYFP and RAMP2 fused to ECFP (Homo sapiens, UniProt O60895+Q16602).
T2 construct: EYFP; ECFP; expressed in transfected cells; host or cells: HEK-293 cells, transient co-transfection
Nature of the assay: cAMP assay (CRE luciferase reporter, HEK-293 cells transiently co-transfected with CLR and RAMP2). It counts as cell-based. The conditions noted are these: Table 2, cAMP assay; HEK-293, CLR/RAMP2, CRE luciferase, 3 h stimulation, normalized to [G^14]ADM(14-52). The method in brief: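 HEK-293 cells transiently co-transfected with CLR-EYFP, RAMP2-ECFP and a CRE-luc2P luciferase reporter were stimulated with ligands (eight concentrations, triplicate) for 3 h at 37 °C. Luminescence was corrected to 5 µM forskolin, normalized to [G^14]ADM(14-52) standard, and fitted by non-linear regression to dose-response curves.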
On the technique in general: cAMP levels reflect the balance of adenylyl cyclase and phosphodiesterase activity.

Bridge positions count the residues as written; N and C are the ends. Square brackets hold non-standard residues; d marks the D form. Peptide text beside a SMILES is read from it. * marks the point of attachment. Palmitoyl = CCCCCCCCCCCCCCCC(=O)*; NMeI = CC[C@H](C)[C@H](NC)C(=O)O; Orn = NCCC[C@H](N)C(=O)O; Dab = NCC[C@H](N)C(=O)O; Dap = NC[C@H](N)C(=O)O

T1 sequence (Q16602 23-461): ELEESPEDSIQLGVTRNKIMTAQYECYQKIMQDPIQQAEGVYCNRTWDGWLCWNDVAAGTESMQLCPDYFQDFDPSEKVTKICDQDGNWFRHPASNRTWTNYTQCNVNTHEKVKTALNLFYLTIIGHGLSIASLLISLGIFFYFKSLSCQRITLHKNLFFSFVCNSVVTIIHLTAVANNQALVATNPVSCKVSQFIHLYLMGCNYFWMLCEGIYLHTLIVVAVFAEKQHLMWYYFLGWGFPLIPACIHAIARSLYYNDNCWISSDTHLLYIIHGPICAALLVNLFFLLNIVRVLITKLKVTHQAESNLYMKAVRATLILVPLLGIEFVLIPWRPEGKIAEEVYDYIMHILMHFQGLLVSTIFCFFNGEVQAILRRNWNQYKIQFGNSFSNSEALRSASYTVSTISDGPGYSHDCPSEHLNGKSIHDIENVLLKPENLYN
T1 sequence (O60895 43-175): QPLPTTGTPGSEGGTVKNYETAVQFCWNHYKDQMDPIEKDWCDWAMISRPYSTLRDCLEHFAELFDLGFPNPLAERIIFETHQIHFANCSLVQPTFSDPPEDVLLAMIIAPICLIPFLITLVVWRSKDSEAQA
T2 sequence (Q16602 23-461): as the sequence (Q16602 23-461) above
T2 sequence (O60895 43-175): as the sequence (O60895 43-175) above

Usually EC50 stands for the concentration at which the effect is half-maximal. In the case of `CCCCCCCCCCCCCCCC(=O)NCCCC[C@H](N)C(=O)NCC(=O)N[C@H]1CCC(=O)NCCCC[C@@H](C(=O)N[C@H](C(=O)N[C@H](C(=O)N[C@@H](CCC(N)=O)C(=O)N[C@@H](CCCCN)C(=O)N[C@@H](CC(C)C)C(=O)N[C@@H](C)C(=O)N[C@@H](Cc2c[nH]cn2)C(=O)N[C@@H](CCC(N)=O)C(=O)N[C@H](C(=O)N[C@@H](Cc2ccc(O)cc2)C(=O)N[C@@H](CCC(N)=O)C(=O)N[C@@H](Cc2ccccc2)C(=O)N[C@H](C(=O)N[C@@H](CC(=O)O)C(=O)N[C@@H](CCCCN)C(=O)N[C@@H](CC(=O)O)C(=O)N[C@@H](CCCCN)C(=O)N[C@@H](CC(=O)O)C(=O)N[C@@H](CC(N)=O)C(=O)N[C@H](C(=O)N[C@@H](C)C(=O)N2CCC[C@H]2C(=O)N[C@@H](CCCNC(=N)N)C(=O)N[C@@H](CO)C(=O)N[C@@H](CCCCN)C(=O)N(C)[C@H](C(=O)N[C@@H](CO)C(=O)N2CCC[C@H]2C(=O)N[C@@H](CCC(N)=O)C(=O)NCC(=O)N[C@@H](Cc2ccc(O)cc2)C(N)=O)[C@@H](C)CC)C(C)C)[C@@H](C)O)[C@@H](C)CC)C(C)C)[C@@H](C)O)NC(=O)[C@H]([C@@H](C)O)NC(=O)CNC(=O)[C@H](Cc2ccccc2)NC(=O)[C@H](CCCNC(=N)N)NC1=O` [Example 14, ((2S,5S,11S,14S,23S)-23-(2-((S)-2-amino-6-palmitamidohexanamido)acetamido)-5-benzyl-2-(3-guanidinopropyl)-11-((R)-1-hydroxyethyl)-3,6,9,12,20,24-hexaoxo-1,4,7,10,13,19-hexaazacyclotetracosane-14-carbonyl)-L-threonyl-[N-Me-I^47]ADM(22-52)] (H-K(Palmitoyl)GERFGTKTVQKLAHQIYQFTDKDKDNVAPRSK[NMeI]SPQGY-NH2; lactam 3-8), the EC50 was 32 nM in assay [1] and 150 nM in assay [2].

Regarding `CC[C@H](C)[C@H](NC(=O)[C@H](CCC(N)=O)NC(=O)[C@H](Cc1c[nH]cn1)NC(=O)[C@H](C)NC(=O)[C@H](CC(C)C)NC(=O)[C@H](CCCCN)NC(=O)[C@H](CCC(N)=O)NC(=O)[C@@H](NC(=O)[C@@H](NC(=O)[C@@H]1CNC(=O)CC[C@H](NC(=O)CNC(=O)CN)C(=O)N[C@@H](CCCNC(=N)N)C(=O)N[C@@H](Cc2ccccc2)C(=O)NCC(=O)N[C@@H]([C@@H](C)O)C(=O)N1)[C@@H](C)O)C(C)C)C(=O)N[C@@H](Cc1ccc(O)cc1)C(=O)N[C@@H](CCC(N)=O)C(=O)N[C@@H](Cc1ccccc1)C(=O)N[C@H](C(=O)N[C@@H](CC(=O)O)C(=O)N[C@@H](CCCCN)C(=O)N[C@@H](CC(=O)O)C(=O)N[C@@H](CCCCN)C(=O)N[C@@H](CC(=O)O)C(=O)N[C@@H](CC(N)=O)C(=O)N[C@H](C(=O)N[C@@H](C)C(=O)N1CCC[C@H]1C(=O)N[C@@H](CCCNC(=N)N)C(=O)N[C@@H](CO)C(=O)N[C@@H](CCCCN)C(=O)N[C@H](C(=O)N[C@@H](CO)C(=O)N1CCC[C@H]1C(=O)N[C@@H](CCC(N)=O)C(=O)NCC(=O)N[C@@H](Cc1ccc(O)cc1)C(N)=O)[C@@H](C)CC)C(C)C)[C@@H](C)O` [Example 6, ((3S,6S,12S,15S,18S)-18-(2-(2-aminoacetamido)acetamido)-12-benzyl-15-(3-guanidinopropyl)-6-((R)-1-hydroxyethyl)-5,8,11,14,17,21-hexaoxo-1,4,7,10,13,16-hexaazacyclohenicosane-3-carbonyl)-L-threonyl-ADM(22-52)] (H-GGERFGT[Dap]TVQKLAHQIYQFTDKDKDNVAPRSKISPQGY-NH2; lactam 3-8), the 50% effective concentration (EC50) in assay [1] was more than 1000 nM; in assay [2], 303 nM.

For `CC[C@H](C)[C@H](NC(=O)[C@H](CCC(N)=O)NC(=O)[C@H](Cc1c[nH]cn1)NC(=O)[C@H](C)NC(=O)[C@H](CC(C)C)NC(=O)[C@H](CCCCN)NC(=O)[C@H](CCC(N)=O)NC(=O)[C@@H](NC(=O)[C@@H](NC(=O)[C@@H]1CC(=O)NCCC[C@H](NC(=O)CNC(=O)CN)C(=O)N[C@@H](CCCNC(=N)N)C(=O)N[C@@H](Cc2ccccc2)C(=O)NCC(=O)N[C@@H]([C@@H](C)O)C(=O)N1)[C@@H](C)O)C(C)C)C(=O)N[C@@H](Cc1ccc(O)cc1)C(=O)N[C@@H](CCC(N)=O)C(=O)N[C@@H](Cc1ccccc1)C(=O)N[C@H](C(=O)N[C@@H](CC(=O)O)C(=O)N[C@@H](CCCCN)C(=O)N[C@@H](CC(=O)O)C(=O)N[C@@H](CCCCN)C(=O)N[C@@H](CC(=O)O)C(=O)N[C@@H](CC(N)=O)C(=O)N[C@H](C(=O)N[C@@H](C)C(=O)N1CCC[C@H]1C(=O)N[C@@H](CCCNC(=N)N)C(=O)N[C@@H](CO)C(=O)N[C@@H](CCCCN)C(=O)N[C@H](C(=O)N[C@@H](CO)C(=O)N1CCC[C@H]1C(=O)N[C@@H](CCC(N)=O)C(=O)NCC(=O)N[C@@H](Cc1ccc(O)cc1)C(N)=O)[C@@H](C)CC)C(C)C)[C@@H](C)O` [Example 9, ((2S,5S,11S,14S,21S)-21-(2-(2-aminoacetamido)acetamido)-5-benzyl-2-(3-guanidinopropyl)-11-((R)-1-hydroxyethyl)-3,6,9,12,16,22-hexaoxo-1,4,7,10,13,17-hexaazacyclodocosane-14-carbonyl)-L-threonyl-ADM(22-52)] (H-GG[Orn]RFGTDTVQKLAHQIYQFTDKDKDNVAPRSKISPQGY-NH2; lactam 3-8), the EC50 in assay [1] and in assay [2] was more than 1000 nM in each case.

In the case of `CCCCCCCCCCCCCCCC(=O)NCCCC[C@H](N)C(=O)NCC(=O)N[C@H]1CCCCNC(=O)CC[C@@H](C(=O)N[C@H](C(=O)N[C@H](C(=O)N[C@@H](CCC(N)=O)C(=O)N[C@@H](CCCCN)C(=O)N[C@@H](CC(C)C)C(=O)N[C@@H](C)C(=O)N[C@@H](Cc2c[nH]cn2)C(=O)N[C@@H](CCC(N)=O)C(=O)N[C@H](C(=O)N[C@@H](Cc2ccc(O)cc2)C(=O)N[C@@H](CCC(N)=O)C(=O)N[C@@H](Cc2ccccc2)C(=O)N[C@H](C(=O)N[C@@H](CC(=O)O)C(=O)N[C@@H](CCCCN)C(=O)N[C@@H](CC(=O)O)C(=O)N[C@@H](CCCCN)C(=O)N[C@@H](CC(=O)O)C(=O)N[C@@H](CC(N)=O)C(=O)N[C@H](C(=O)N[C@@H](C)C(=O)N2CCC[C@H]2C(=O)N[C@@H](CCCNC(=N)N)C(=O)N[C@@H](CO)C(=O)N[C@@H](CCCCN)C(=O)N[C@H](C(=O)N[C@@H](CO)C(=O)N2CCC[C@H]2C(=O)N[C@@H](CCC(N)=O)C(=O)NCC(=O)N[C@@H](Cc2ccc(O)cc2)C(N)=O)[C@@H](C)CC)C(C)C)[C@@H](C)O)[C@@H](C)CC)C(C)C)[C@@H](C)O)NC(=O)[C@H]([C@@H](C)O)NC(=O)CNC(=O)[C@H](Cc2ccccc2)NC(=O)[C@H](CCCNC(=N)N)NC1=O` [Example 13, ((2S,5S,11S,14S,23S)-23-(2-((S)-2-amino-6-palmitamidohexanamido)acetamido)-5-benzyl-2-(3-guanidinopropyl)-11-((R)-1-hydroxyethyl)-3,6,9,12,17,24-hexaoxo-1,4,7,10,13,18-hexaazacyclotetracosane-14-carbonyl)-L-threonyl-ADM(22-52)] (H-K(Palmitoyl)GKRFGTETVQKLAHQIYQFTDKDKDNVAPRSKISPQGY-NH2; lactam 3-8), the EC50 was more than 1000 nM in assay [1] and 156 nM in assay [2].

Regarding `CC[C@H](C)[C@H](NC(=O)[C@H](CCC(N)=O)NC(=O)[C@H](Cc1c[nH]cn1)NC(=O)[C@H](C)NC(=O)[C@H](CC(C)C)NC(=O)[C@H](CCCCN)NC(=O)[C@H](CCC(N)=O)NC(=O)[C@@H](NC(=O)[C@@H](NC(=O)[C@@H]1CC(=O)NCC[C@H](NC(=O)CNC(=O)CN)C(=O)N[C@@H](CCCNC(=N)N)C(=O)N[C@@H](Cc2ccccc2)C(=O)NCC(=O)N[C@@H]([C@@H](C)O)C(=O)N1)[C@@H](C)O)C(C)C)C(=O)N[C@@H](Cc1ccc(O)cc1)C(=O)N[C@@H](CCC(N)=O)C(=O)N[C@@H](Cc1ccccc1)C(=O)N[C@H](C(=O)N[C@@H](CC(=O)O)C(=O)N[C@@H](CCCCN)C(=O)N[C@@H](CC(=O)O)C(=O)N[C@@H](CCCCN)C(=O)N[C@@H](CC(=O)O)C(=O)N[C@@H](CC(N)=O)C(=O)N[C@H](C(=O)N[C@@H](C)C(=O)N1CCC[C@H]1C(=O)N[C@@H](CCCNC(=N)N)C(=O)N[C@@H](CO)C(=O)N[C@@H](CCCCN)C(=O)N[C@H](C(=O)N[C@@H](CO)C(=O)N1CCC[C@H]1C(=O)N[C@@H](CCC(N)=O)C(=O)NCC(=O)N[C@@H](Cc1ccc(O)cc1)C(N)=O)[C@@H](C)CC)C(C)C)[C@@H](C)O` [Example 5, ((2S,5S,11S,14S,20S)-20-(2-(2-aminoacetamido)acetamido)-5-benzyl-2-(3-guanidinopropyl)-11-((R)-1-hydroxyethyl)-3,6,9,12,16,21-hexaoxo-1,4,7,10,13,17-hexaazacyclohenicosane-14-carbonyl)-L-threonyl-ADM(22-52)] (H-GG[Dab]RFGTDTVQKLAHQIYQFTDKDKDNVAPRSKISPQGY-NH2; lactam 3-8), the EC50 in assay [1] was more than 1000 nM; in assay [2], 112 nM.
